Key:
[1] = biological target: T1, Bromodomain-containing protein 9 (Homo sapiens, UniProt Q9H8M2); experiment: Inhibition of BRD9 (unknown origin) using H4 peptide as substrate preincubated for 15 mins followed by substrate addition and measured after 60 mins by Alphascreen assay
T1 sequence (Q9H8M2 whole entry): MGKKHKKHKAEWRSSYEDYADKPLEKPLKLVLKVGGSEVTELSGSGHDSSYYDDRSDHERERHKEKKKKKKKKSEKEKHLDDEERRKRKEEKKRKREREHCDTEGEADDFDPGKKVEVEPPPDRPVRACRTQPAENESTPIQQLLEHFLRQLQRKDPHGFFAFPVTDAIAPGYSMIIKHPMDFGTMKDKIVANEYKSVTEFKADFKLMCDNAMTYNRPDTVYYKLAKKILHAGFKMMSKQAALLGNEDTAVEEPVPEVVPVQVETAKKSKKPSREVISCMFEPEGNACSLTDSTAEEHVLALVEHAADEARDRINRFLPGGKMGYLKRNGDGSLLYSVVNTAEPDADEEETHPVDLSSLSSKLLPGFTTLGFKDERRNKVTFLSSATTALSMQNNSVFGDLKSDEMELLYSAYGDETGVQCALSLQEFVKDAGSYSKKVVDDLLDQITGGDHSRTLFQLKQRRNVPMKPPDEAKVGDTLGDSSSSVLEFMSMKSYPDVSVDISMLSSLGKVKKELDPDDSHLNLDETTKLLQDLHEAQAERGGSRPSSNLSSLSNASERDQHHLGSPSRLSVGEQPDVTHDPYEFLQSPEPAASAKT

[2] = biological target: T2, Bromodomain-containing protein 9 (Homo sapiens) (UniProt Q9H8M2); experiment: Inhibition of BRD9 (unknown origin) at 1 uM using H4 peptide as substrate preincubated for 15 mins followed by substrate addition and measured after 60 mins by Alphascreen assay relative to control
T2 sequence (whole entry): T1 sequence (Q9H8M2 whole entry)

[3] = biological target: Bromodomain-containing protein 4 (Homo sapiens) (UniProt O60885); experiment: Inhibition of recombinant human BRD4 (44 to 168) residues expressed in Escherichia coli at 1 uM using H4 peptide as substrate preincubated for 15 mins followed by substrate addition and measured after 60 mins by Alphascreen assay relative to control
A549 = experiment: Antiproliferative activity against human A549 cells; assay type: functional, cell-based
EOL1 = experiment: Antiproliferative activity against human EOL-1 cells; assay type: functional, cell-based

| Structure (SMILES) | IC50 [1] | inhibition [2] | inhibition [3] | IC50 (A549) | IC50 (EOL1) |
| --- | --- | --- | --- | --- | --- |
| C/C=C/Cn1cc(-c2ccc(C(=O)N3CCN(S(C)(=O)=O)CC3)c(F)c2)n2cncc2c1=O | 652 nM | 71% |  |  |  |
| CCS(=O)(=O)Nc1ccc(Oc2ccc(F)cc2)c(-c2cn(C)c(=O)c3cncn23)c1 |  |  | 100% |  |  |
| CCCn1cc(-c2ccc(C(=O)NC3CCS(=O)(=O)CC3)c(Cl)c2)n2cncc2c1=O |  | 23% |  |  |  |
| C/C=C/Cn1cc(-c2ccc(C(=O)N3CCN(C)CC3)c(Cl)c2)n2cncc2c1=O | 557 nM | 80% | -3% | > 10000 nM | 7030 nM |
| COc1cccc(-c2cn(C)c(=O)c3cncn23)c1 | 3010 nM | 16% |  |  |  |
| C/C=C/Cn1cc(-c2ccc(C(=O)N3CCN(S(C)(=O)=O)CC3)cc2Cl)n2cncc2c1=O | 840 nM | 52% |  |  |  |
| C/C=C/Cn1cc(-c2ccc(C(=O)N3CCN(S(C)(=O)=O)CC3)c(Cl)c2)n2cncc2c1=O | 103 nM | 94% | -5% | 6630 nM | 2290 nM |
| C/C=C/Cn1cc(-c2ccc(C(=O)N3CCOCC3)c(Cl)c2)n2cncc2c1=O | 465 nM | 91% | -2% | > 10000 nM | 8170 nM |
| C/C=C/Cn1cc(-c2ccc(C(=O)N3CCC(C(N)=O)CC3)c(Cl)c2)n2cncc2c1=O | 262 nM | 94% | -5% | 7150 nM | 3420 nM |
| Cn1cc(-c2ccccc2)n2cncc2c1=O | 7210 nM | 7% |  |  |  |
| Cn1cc(-c2ccc(C(=O)N3CCOCC3)cc2)n2cncc2c1=O | 2330 nM | 18% |  |  |  |
| CCn1cc(-c2ccc(C(=O)NC3CCS(=O)(=O)CC3)c(Cl)c2)n2cncc2c1=O | 1020 nM | 75% |  |  |  |
| CCCCn1cc(-c2ccc(C(=O)N3CCNCC3)c(Cl)c2)n2cncc2c1=O | 730 nM | 68% |  |  |  |
| C/C=C/Cn1cc(-c2ccc(C(=O)N3CCNCC3)c(Cl)c2)n2cncc2c1=O | 35 nM | 99% | -6% | 6120 nM | 1760 nM |
| C/C=C/Cn1cc(-c2ccc(C(=O)N3CCCC3)c(Cl)c2)n2cncc2c1=O | 438 nM | 87% | -4% | 8230 nM | 5820 nM |

More lines, main results first:

| IC50 [1] | inhibition [2] | inhibition [3] | IC50 (A549) | Structure (SMILES) | IC50 (EOL1) |
| --- | --- | --- | --- | --- | --- |
| 802 nM | 83% |  |  | CCn1cc(-c2ccc(C(=O)N3CCNCC3)c(Cl)c2)n2cncc2c1=O |  |
|  | 87 to 90% |  |  | CCOC(=O)Nc1cc(-c2ccc(C)c(NS(C)(=O)=O)c2)nn2c(C)nnc12 |  |
| 7410 nM | 6% |  |  | Cn1cc(-c2cccc(C(F)(F)F)c2)n2cncc2c1=O |  |
| 763 nM | 42% |  |  | C/C=C/Cn1cc(-c2ccc(C(=O)N3CCOCC3)cc2Cl)n2cncc2c1=O |  |
| 1500 nM | 27% |  |  | Cn1cc(-c2ccc(C(=O)N3CCOCC3)c(Cl)c2)n2cncc2c1=O |  |
| 967 nM | 38% |  |  | C/C=C/Cn1cc(-c2ccc(C(=O)N3CCOCC3)c(F)c2)n2cncc2c1=O |  |
|  | 21% |  |  | CCCCn1cc(-c2ccc(C(=O)NC3CCS(=O)(=O)CC3)c(Cl)c2)n2cncc2c1=O |  |
| 480 nM | 100% | -5% | > 10000 nM | C/C=C/Cn1cc(-c2ccc(C(=O)NC3CCS(=O)(=O)CC3)c(Cl)c2)n2cncc2c1=O | 5340 nM |
| 930 nM | 86% |  |  | CCCn1cc(-c2ccc(C(=O)N3CCNCC3)c(Cl)c2)n2cncc2c1=O |  |
| 827 nM | 48% |  |  | CCCCn1cc(-c2ccc(C(=O)N3CCOCC3)c(Cl)c2)n2cncc2c1=O |  |
|  | 5% |  |  | CCn1cc(-c2ccc(C(=O)N3CCOCC3)c(Cl)c2)n2cncc2c1=O |  |
